Results taken from PubChem BioAssay AID330 (DTP/NCI, 2004).
Where “and” joins values, the source holds several entries; their conditions need not be identical. Equal values may be shown once. Toxic doses and inconclusive results are not listed. The calls were made as follows: active = survival T/C of 150% or more; inactive = T/C below 125% in these data. Bridge positions count the residues as written; N and C are the ends. Peptide text beside a SMILES is read from it.

Tested on: P388 leukemia ip, CD2F1 mice, survival T/C
Experiment: NCI In Vivo Anticancer Drug Screen. Data for tumor model P388 Leukemia (intraperitoneal) in CD2F1 (CDF1) mice
Details: endpoint: median survival time, higher = longer survival
In short: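 Mice carrying the transplanted tumor received test compound or vehicle. Survival was recorded in each group, and the value is the treated-group measurement divided by that of the vehicle-treated control group.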

[1] = dose: 60.0 mg/kg/injection, schedule: Q01DX005 (ip), vehicle: saline with Tween-80
[2] = dose: 120.0 mg/kg/injection, schedule: Q01DX005 (ip), vehicle: saline with Tween-80
[3] = dose: 240.0 mg/kg/injection, schedule: Q01DX005 (ip), vehicle: saline with Tween-80
[4] = dose: 50.0 mg/kg/injection, schedule: Q01DX009 (ip), vehicle: saline
[5] = dose: 100.0 mg/kg/injection, schedule: Q01DX009 (ip), vehicle: saline
[6] = dose: 200.0 mg/kg/injection, schedule: Q01DX009 (ip), vehicle: saline
[7] = dose: 25.0 mg/kg/injection, schedule: Q01DX005 (ip), vehicle: saline with Tween-80
[8] = dose: 50.0 mg/kg/injection, schedule: Q01DX005 (ip), vehicle: Klucel (hydroxypropylcellulose) (HPC)
[9] = dose: 100.0 mg/kg/injection, schedule: Q01DX005 (ip), vehicle: Klucel (hydroxypropylcellulose) (HPC)
[10] = dose: 200.0 mg/kg/injection, schedule: Q01DX005 (ip), vehicle: Klucel (hydroxypropylcellulose) (HPC)
[11] = dose: 50.0 mg/kg/injection, schedule: Q01DX005 (ip), vehicle: saline with Tween-80
[12] = dose: 100.0 mg/kg/injection, schedule: Q01DX005 (ip), vehicle: saline with Tween-80
[13] = dose: 60.0 mg/kg/injection, schedule: Q01DX005 (ip), vehicle: saline
[14] = dose: 120.0 mg/kg/injection, schedule: Q01DX005 (ip), vehicle: saline

Measured: T/C

O=C(NN=c1c(=O)c2ccccc2c1=O)c1ccncc1
inactive: [1] 112 % of control | [2] 119 % of control | [3] 119 % of control

CCCC1CN2CCc3cc(OC)c(OC)cc3C2CC1=O (stereo not given)
inactive: [4] 100 % of control and 104 % of control | [5] 112 % of control and 115 % of control | [6] 120 % of control

CN(C)CCN(Cc1ccco1)c1ccccn1
inactive: dose: 12.5 mg/kg/injection, schedule: Q01DX005 (ip), vehicle: saline with Tween-80 92 % of control | dose: 12.5 mg/kg/injection, schedule: Q01DX005 (ip), vehicle: saline 96 % of control and 98 % of control | [7] 100 % of control | dose: 25.0 mg/kg/injection, schedule: Q01DX005 (ip), vehicle: saline 96 % of control and 99 % of control | dose: 50.0 mg/kg/injection, schedule: Q01DX005 (ip), vehicle: saline 102 % of control [middle of 4 runs]

CCCCC1C(=S)N(c2ccccc2)N(c2ccccc2)C1=S
inactive: [8] 101 % of control | [9] 94 % of control | [10] 97 % of control

O=c1[nH]cc(N=Cc2cccc3c2OCO3)c(=O)[nH]1
inactive: dose: 100.0 mg/kg/injection, schedule: Q01DX001 (ip), vehicle: suspension in saline 99 % of control | dose: 200.0 mg/kg/injection, schedule: Q01DX001 (ip), vehicle: suspension in saline 86 % of control

O=C(O)c1ccnc2ccc3ccccc3c12
inactive: [11] 93 % of control | [12] 109 % of control | dose: 200.0 mg/kg/injection, schedule: Q01DX005 (ip), vehicle: saline with Tween-80 118 % of control

CC1(C)S[C@@H]2[C@H](NC(=O)C3(N)CCCCC3)C(=O)N2[C@H]1C(=O)O
inactive: [8] 103 % of control | [9] 103 % of control | [10] 102 % of control

COC(=O)/C=C(\C(=O)OC)c1ccccc1C(C(=O)OC)c1ccccc1CC(=O)OC (stereo not given)
inactive: dose: 50.0 mg/kg/injection, schedule: Q01DX009 (ip), vehicle: saline with Tween-80 108 % of control | dose: 100.0 mg/kg/injection, schedule: Q01DX009 (ip), vehicle: saline with Tween-80 106 % of control | dose: 200.0 mg/kg/injection, schedule: Q01DX009 (ip), vehicle: saline with Tween-80 108 % of control

O=C1C2CC3CC1CC(Cl)(C3)C2
inactive: [11] 112 % of control | [12] 98 % of control

COc1ccc(C2=Nn3c(nc(N)nc3=N)SC2)cc1
inactive: [7] 113 % of control | [11] 100 % of control | [12] 96 % of control

Cc1ccc(S(=O)(=O)N/N=C/c2ccsc2)cc1
inactive: dose: 100.0 mg/kg/injection, schedule: Q04DX003 (ip), vehicle: Klucel (hydroxypropylcellulose) (HPC) 92 % of control | dose: 200.0 mg/kg/injection, schedule: Q04DX003 (ip), vehicle: Klucel (hydroxypropylcellulose) (HPC) 106 % of control | dose: 400.0 mg/kg/injection, schedule: Q04DX003 (ip), vehicle: Klucel (hydroxypropylcellulose) (HPC) 100 % of control

NNC(=O)CCCCl
inactive: [13] 111 % of control | [14] 110 % of control

COc1ccc(N=C(C)c2c(O)n(-c3ccccc3)[nH]c2=O)cc1
inactive: [8] 101 % of control | [9] 104 % of control | [10] 99 % of control

Nn1c(-c2nn[nH]n2)nnc1-c1nn[nH]n1 (tested in a mixture with another compound)
inactive: dose: 50.0 mg/kg/injection, schedule: Q01DX001 (ip), vehicle: Klucel (hydroxypropylcellulose) (HPC) 109 % of control | dose: 100.0 mg/kg/injection, schedule: Q01DX001 (ip), vehicle: Klucel (hydroxypropylcellulose) (HPC) 107 % of control | dose: 200.0 mg/kg/injection, schedule: Q01DX001 (ip), vehicle: Klucel (hydroxypropylcellulose) (HPC) 103 % of control

SCc1ccccc1.[Cu+2]
inactive: dose: 6.25 mg/kg/injection, schedule: Q01DX009 (ip), vehicle: saline with Tween-80 99 % of control | dose: 12.5 mg/kg/injection, schedule: Q01DX009 (ip), vehicle: saline with Tween-80 91 % of control | dose: 25.0 mg/kg/injection, schedule: Q01DX009 (ip), vehicle: saline with Tween-80 97 % of control

CC(=O)Nn1c(N)nc2ccccc21
inactive: dose: 100.0 mg/kg/injection, schedule: Q04DX003 (ip), vehicle: saline 100 % of control | dose: 200.0 mg/kg/injection, schedule: Q04DX003 (ip), vehicle: saline 109 % of control | dose: 400.0 mg/kg/injection, schedule: Q04DX003 (ip), vehicle: saline 96 % of control

C=C1C(=O)OC2C=CCCC12 (stereo not given)
inactive: dose: 12.5 mg/kg/injection, schedule: Q01DX009 (ip), vehicle: water 101 % of control | dose: 25.0 mg/kg/injection, schedule: Q01DX009 (ip), vehicle: water 103 % of control | dose: 50.0 mg/kg/injection, schedule: Q01DX009 (ip), vehicle: water 106 % of control | dose: 100.0 mg/kg/injection, schedule: Q01DX009 (ip), vehicle: water 118 % of control

CCC(C)C1NC(=O)C(CC(C)C)NC(=O)C(C(C)C)NC(=O)C2CSSCC(NC1=O)C(=O)N2 (stereo not given) (cyclo(CCVLI); disulfide 1-2; configuration not given here)
inactive: dose: 31.25 micrograms/kg/injection, schedule: Q01DX009 (ip), vehicle: Klucel (hydroxypropylcellulose) (HPC) 106 % of control | dose: 62.5 micrograms/kg/injection, schedule: Q01DX009 (ip), vehicle: Klucel (hydroxypropylcellulose) (HPC) 100 % of control | dose: 125.0 micrograms/kg/injection, schedule: Q01DX009 (ip), vehicle: Klucel (hydroxypropylcellulose) (HPC) 94 % of control | dose: 250.0 micrograms/kg/injection, schedule: Q01DX009 (ip), vehicle: Klucel (hydroxypropylcellulose) (HPC) 97 % of control | dose: 500.0 micrograms/kg/injection, schedule: Q01DX009 (ip), vehicle: Klucel (hydroxypropylcellulose) (HPC) 99 % of control | dose: 1000.0 micrograms/kg/injection, schedule: Q01DX009 (ip), vehicle: Klucel (hydroxypropylcellulose) (HPC) 97 % of control

CC(=O)C1=C(N)OCCC1
inactive: [4] 114 % of control | [5] 107 % of control | [6] 109 % of control

CC(C)(C)c1ccc(O)c(CNCc2ccccc2)c1
inactive: dose: 25.0 mg/kg/injection, schedule: Q01DX005 (ip), vehicle: Klucel + Tween-80 99 % of control | dose: 50.0 mg/kg/injection, schedule: Q01DX005 (ip), vehicle: Klucel + Tween-80 97 % of control | dose: 100.0 mg/kg/injection, schedule: Q01DX005 (ip), vehicle: Klucel + Tween-80 93 % of control | dose: 200.0 mg/kg/injection, schedule: Q01DX005 (ip), vehicle: Klucel + Tween-80 100 % of control

C=C(CC(N)=O)C(N)C(=O)O (stereo not given)
inactive: [13] 100 % of control | [14] 100 % of control | dose: 240.0 mg/kg/injection, schedule: Q01DX005 (ip), vehicle: saline 100 % of control

CCO/C=C1/N=C(c2ccccc2Cl)OC1=O
inactive: [1] 106 % of control | [2] 118 % of control | [3] 98 % of control

O=[N+]([O-])c1cccc(Cl)c1C(Nc1nncs1)Nc1nncs1
inactive: dose: 60.0 mg/kg/injection, schedule: Q01DX005 (ip), vehicle: Klucel (hydroxypropylcellulose) (HPC) 96 % of control | dose: 120.0 mg/kg/injection, schedule: Q01DX005 (ip), vehicle: Klucel (hydroxypropylcellulose) (HPC) 106 % of control | dose: 240.0 mg/kg/injection, schedule: Q01DX005 (ip), vehicle: Klucel (hydroxypropylcellulose) (HPC) 118 % of control

COc1cccc2cc3c(NCCCN(C)C)nnc(NCCCN(C)C)c3cc12
inactive: dose: 7.5 mg/kg/injection, schedule: Q01DX005 (ip), vehicle: saline 105 % of control | dose: 15.0 mg/kg/injection, schedule: Q01DX005 (ip), vehicle: saline 98 % of control
